Assay results reported in patent US8710088B2, “Pharmaceutical and diagnostic compositions for use in the treatment and diagnosis of neurodegenerative diseases or amyloid diseases” (Max-Delbruck-Centrum fur Molekulare Medizin, priority 2004, dated 2014).

Legend:
[1] = molecular target: T1, mutant huntingtin (GST fusion protein GST-HDQ51) (Homo sapiens, UniProt P42858, INS38QQQQQQQQQQQQQQQQQQQQQQQQQQQQQQ); test: in vitro aggregation of mutant huntingtin, membrane filter test; format: biochemical; details: membrane filter method
T1 construct: GST (N)
Experimental: (§1) As in the tests described by Heiser et al. (2002), the protein was used for aggregation tests to which either only solvent or solvent and the chemical agent in question was added. Aliquots of these batches were examined by means of the membrane filter test and electron microscopy.
(§2) As in the tests described by Heiser et al. (2002), the protein was used for aggregation tests to which either only solvent or solvent and 7-amino-8-(2,4-dihydroxy-6-methyl-phenyl)-1,9-dimethyl-phenoxazine-3-one was added. Aliquots of these batches were examined by means of the membrane filter test (FIG. 1B) and electron microscopy (FIGS. 1E and 1F).

alpha-synuclein = alpha-synuclein amyloid fibril formation, electron microscopy; format: biochemical; details: wild type protein or mutant (A53T)
Source text: For this purpose, the wild type protein or a mutant (A53T) was used.

[2] = molecular target: T1, mutant huntingtin (GST fusion protein GST-HDQ51); test: in vitro amyloid fibril formation of huntingtin, electron microscopy; format: biochemical
Experimental: as §1, §2

neuroblastoma cells = neuroblastoma cells damaged with amyloid β-peptide; cited from earlier work
[3] = molecular target: T2, amyloid β-peptide Aβ1-42[E22Q] (Homo sapiens, UniProt P05067, E693Q); test: aggregation assay with Aβ1-42[E22Q], membrane filter method or electron microscopy; format: biochemical; details: 15 μM peptide, pH 7.4, 42 h, 37° C.
T2 construct: the amyloid β-peptide Aβ1-42[E22Q]
Experimental: (§3) Analogously, the compounds were also examined in aggregation assays with the amyloid β-peptide Aβ1-42(E22Q), which is a particularly rapidly aggregating variant of amyloid β, as well as with non-mutated (wild type) Aβ1-42. For this purpose, the peptide was incubated at a concentration of 15 μM in a phosphate buffer with a physiological pH value of 7.4 for 42 h at 37° C. and subsequently, aliquots were examined by means of the membrane filter method (Figure) or electron microscopy (Figures) as well. […] Cell viability measurements were carried out in neuronally differentiated PC12 cells to which beta-amyloid and the substances to be tested were added extracellularly in order to examine whether the compounds are able to reduce toxicity caused by amyloid-beta. After 48 h the viability of the cells (approximately corresponds to the number of vital cells) was measured.
Analogously, the compound was also examined in aggregation assays with the amyloid β-peptide Aβ1-42[E22Q] which is a particularly rapidly aggregating variant of amyloid β. For this purpose, the peptide was incubated at a concentration of 15 μM in a phosphate buffer with a physiological pH value of 7.4 for 42 h at 37° C. and subsequently, aliquots were examined by means of the membrane filter method (FIG. 1A) or electron microscopy (FIGS. 1C and 1D) as well.

huntingtin = molecular target: T3, huntingtin (Homo sapiens, UniProt P42858, INS38QQQQQQQQQQQQQQQQQQQQQQQQQQQQQQ); test: cell culture model of Huntington's chorea: COS1 cells transfected with pTL1-CAG51, membrane filter test; format: cell-based; details: 40-44 h, membrane filter method
T3 construct: expressed in transfected cells; host or cells: COS1 cells, transient transfection
Experimental: (§4) The compounds were then tested in several cell culture models of polyglutamine diseases, inter alia Huntington's chorea. For this purpose, COS1 cells were transiently transfected with the plasmid pTL1-CAG51 already described above (Sittler, A., Walter, S., Wedemeyer, N., Hasenbank, R., Scherzinger, E., Eickhoff, H., Bates, G. P., Lehrach, H. and Wanker, E. E. (1998) Mol Cell 2, 427-36) and cultivated for 44 h in the presence of solvents or the chemical agents. Subsequently, the amount of aggregate was determined with the help of the membrane filter test as described by Heiser et al. (2002). […] The latter could be deduced from the total amount of protein in the cell lysate (FIG. 2B) which was determined with the help of cell extracts.
7-Amino-8-(2,4-dihydroxy-6-methyl-phenyl)-1,9-dimethyl-phenoxazine-3-one was then tested in a cell culture model of Huntington's chorea. For this purpose, COS1 cells were transiently transfected with the plasmid pTL1-CAG51 already described above (Sittler, A., Walter, S., Wedemeyer, N., Hasenbank, R., Scherzinger, E., Eickhoff, H., Bates, G. P., Lehrach, H. and Wanker, E. E. (1998) Mol Cell 2, 427-36) and cultivated for 40-44 h in the presence of solvents or 7-amino-8-(2,4-dihydroxy-6-methyl-phenyl)-1,9-dimethyl-phenoxazine-3-one. Subsequently, the amount of aggregate was determined with the help of the membrane filter test as described by Heiser et al. (2002). […] The latter could be deduced from the total amount of protein (FIG. 2B) which was determined with the help of cell extracts.

COS1 cells = test: total amount of protein in the cell lysate (toxicity) in the COS1 model; format: cell-based
Experimental: as §4
7-Amino-8-(2,4-dihydroxy-6-methyl-phenyl)-1,9-dimethyl-phenoxazine-3-one was then tested in a cell culture model of Huntington's chorea. […] Subsequently, the amount of aggregate was determined with the help of the membrane filter test as described by Heiser et al. (2002). […] The latter could be deduced from the total amount of protein (FIG. 2B) which was determined with the help of cell extracts.

caspases-3/-7 = test: caspase activity in the COS1 model of Huntington's chorea, fluorogenic substrate; format: cell-based; details: fluorometric
Experimental: (§5) In addition, it was examined in this cell culture model of Huntington's chorea whether the substances tested substances can cause cell damage by initiating apoptotic processes. For this purpose, the activity of two caspases (caspases-3/-7) was determined fluorometrically after addition of a fluorogenic substrate.
as §5, with “7-amino-8-(2,4-dihydroxy-6-methyl-phenyl)-1,9-dimethyl-phenoxazine-3-one” for “the substances tested substances”, “(caspases 3 and 7)” for “(caspases-3/-7)”

wild type Aβ1-42 = molecular target: T4, wild type Aβ1-42 (Homo sapiens, UniProt P05067); test: aggregation assay with wild type Aβ1-42, membrane filter method; format: biochemical; details: peptide 15 μM, pH 7.4, 42 h, 37° C.
T4 construct: non-mutated (wild type) Aβ1-42
Experimental: as §3

[4] = system: neuronally differentiated PC12 cells; test: toxicity of extracellular Aβ1-42 in neuronally differentiated PC12 cells, MTT test; format: cell-based; details: 48 h
Experimental: as §3

[5] = system: ataxin-3 deletion construct (aa 221-360) with 71 glutamines; test: ataxin-3 aggregation in COS-1 cells, filtration method; format: cell-based; details: 40 h, membrane filter method
Experimental: For some compounds, a positive effect could be observed in another cell culture model of Huntington's chorea and a cell culture model of spinocerebellar ataxia (type 3). A test system based on the aggregation of an N-terminal ataxin-3 deletion construct (aa 221-360) with 71 glutamines in COS-1 cells was developed to isolate substances inhibiting the ataxin-3 aggregation. The cells were transiently transfected with the ataxin-3 expression construct and incubated in plates with 96 perforations with the added substance at 37° C. in an incubator. After 40 h the cells were harvested and lysated. The lysates were denatured in the presence of 2% SDS and analyzed using the filtration method.

amyloid-beta fibrils = amyloid-beta fibrils (Homo sapiens, UniProt P05067); test: binding to amyloid-beta aggregates located on a cellulose acetate membrane; details: colored substances
Source text: FIG. 16: Binding to amyloid-beta aggregates located on a cellulose acetate membrane

T3 sequence (P42858 with tags, fused parts or gaps with the stated changes limits assumed): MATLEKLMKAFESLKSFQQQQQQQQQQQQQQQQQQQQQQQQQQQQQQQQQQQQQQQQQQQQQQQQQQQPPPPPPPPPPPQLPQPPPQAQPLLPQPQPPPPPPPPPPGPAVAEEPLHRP
T1 sequence (P42858 with tags, fused parts or gaps with the stated changes limits assumed): as above
T4 sequence (P05067 672-713 limits assumed): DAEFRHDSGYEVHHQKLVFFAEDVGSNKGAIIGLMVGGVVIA
T2 sequence (P05067 672-713 E693Q): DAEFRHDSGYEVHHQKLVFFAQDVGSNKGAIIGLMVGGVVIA
Sequence of amyloid-beta fibrils (P05067 672-713 limits assumed): as the sequence (P05067 672-713 limits assumed) above

Oc1cc(O)c2c(c1)O[C@@H](c1cc(O)c(O)c(O)c1)[C@H](O)C2 [GC, (−)-Gallocatechin]
Inhibition of the aggregation of huntingtin (Exon-1) (SDS-insoluble aggregates) [1]: Inhibition of the aggregation
Inhibition of the aggregation of alpha-synuclein (amyloid fibrils) (alpha-synuclein): Inhibition of the aggregation

c1cc2c3c(cccc3c1)NC(c1ccncc1)N2 [2-pyridine-4-yl-2,3-dihydro-1H-perimidine]
Inhibition of the amyloid fibril formation of huntingtin (Exon-1) [2]: Inhibition of the amyloid fibril formation

O=C(O[C@@H]1Cc2c(O)cc(O)cc2O[C@@H]1c1cc(O)c(O)c(O)c1)c1cc(O)c(O)c(O)c1 [EGCG, (−)-Epigallocatechin gallate]
Inhibition of the aggregation of alpha-synuclein (amyloid fibrils) (alpha-synuclein): Inhibition of the aggregation
neuroprotective effect (neuroblastoma cells): neuroprotective effect

Cc1cc(=O)cc2oc3cc(N)c(-c4c(C)cc(O)cc4O)c(C)c3nc1-2 [7-amino-8-(2,4-dihydroxy-6-methyl-phenyl)-1,9-dimethyl-phenoxazine-3-one]
Inhibition of the aggregation of huntingtin (Exon-1) (SDS-insoluble aggregates) [1]: aggregation inhibiting effect
Inhibition of the amyloid fibril formation of huntingtin (Exon-1) [2]: aggregation inhibiting effect
Inhibition of the aggregation of amyloid β-peptide Aβ1-42[E22Q] [3]: effectively inhibits the aggregation
Inhibition of the aggregation of huntingtin in mammalian cells (huntingtin): aggregation inhibiting influence
increase of total protein content (COS1 cells; COS1 cells cultivated in presence of compound): ~20%
toxic effect, deduced from total amount of protein (COS1 cells; COS1 cells, at the concentrations used): without having a toxic effect
caspase activity (caspases 3 and 7) (caspases-3/-7): caspase activity was reduced

Nc1cccc(C2=Nc3cccc4cccc(c34)N2)c1 [3-(1H-perimidine-2-yl)-phenylamine]
Inhibition of the aggregation of wild type Aβ1-42 (SDS-insoluble aggregates) (wild type Aβ1-42): Inhibition of the aggregation
Inhibition of toxicity of extracellular wild type Aβ1-42 [4]: Inhibition of toxicity

Oc1cc(O)c2c(c1)O[C@H](c1cc(O)c(O)c(O)c1)[C@H](O)C2 [EGC, (−)-Epigallocatechin]
Inhibition of the aggregation of huntingtin (Exon-1) (SDS-insoluble aggregates) [1]: Inhibition of the aggregation
Inhibition of the aggregation of alpha-synuclein (amyloid fibrils) (alpha-synuclein): Inhibition of the aggregation

CC(=O)N1CCN(c2ccc(OC(=O)Cc3cccs3)cc2)CC1 [Thiophene-2-yl-acetic acid 4-(4-acetyl-piperazine-1-yl)-phenyl ester]
Inhibition of the aggregation of huntingtin in mammalian cells (huntingtin): Inhibition of the aggregation
Inhibition of the aggregation of ataxin-3 in mammalian cells [5]: Inhibition of the aggregation

alpha-amino-orcein
Inhibition of the aggregation of wild type Aβ1-42 (SDS-insoluble aggregates) (wild type Aβ1-42): Inhibition of the aggregation
Inhibition of toxicity of extracellular wild type Aβ1-42 [4]: Inhibition of the toxicity
Inhibition of the aggregation of huntingtin in mammalian cells (huntingtin): Inhibition of the aggregation
direct binding to amyloid-beta fibrils (amyloid-beta fibrils): bind directly to amyloid-beta fibrils
